Data set [1] in a line: Oral bioavailability in fasted male rats (intravenous and oral dosing). It counts as in vivo. The settings on record: for AUC(0-inf) / bioavailability: rat, plasma; for AUC(0-inf): fasted male rats (n=3), read-out: area under the curve AUC.infin.; for bioavailability: from dose-normalized AUC.infin. oral vs intravenous. The procedure:
Fasted male rats (n=3) were given a single dose of the title compound either intravenously (10 μmol/kg as a 10 minute infusion) or orally by gavage (20 μmol/kg). The dosing vehicle was propylene glycol for the intravenous dose and PEG-400 for the oral dose. Following dosing, the average plasma concentration of the title compound was measured over time, and the area under the curve AUC.infin.

Data set [2] has as its system big ET-1 pressor response. Kind of data set: Pressor testing (i): inhibition of big ET-1 pressor response after intravenous dosing. The data set is classed as in vivo. The conditions noted are these: Rattus norvegicus, 5 min, read-out: dose causing 50% inhibition of the big ET-1 pressor response (ED50), human big ET-1 1 nmol/kg i.v. before and 5 minutes after compound, conscious normotensive Sprague-Dawley rats. The procedure: (i) Intravenous injection of big ET-1 into conscious, normotensive rats produces a transient increase in mean arterial pressure which can be blunted by an ETA receptor antagonist.
A bolus injection of human big ET-1 (1 nmol/kg, intravenously; vehicle: 1% Tween 80 in 5% NaHCO3) was administered to Sprague-Dawley rats before and 5 minutes after intravenous injection of an amount of the title compound (0.01 μmol/kg (n=10), 0.03 μmol/kg (n=10), and 0.1 μmol/kg (n=3)). Peak pressor responses were compared to determine the amount of inhibition caused by the title compound.

Data set [3] in a line: Pre-systemic metabolic stability within the gastrointestinal tract, in vivo (bile duct cannulated rats). The conditions noted are these: rat, po, 29 mg/kg. As for the experimental part: Bile duct cannulated rats were fasted overnight. The title compound was administered as a solution in 5% sodium bicarbonate (ca. 8 mg/ml, 29 mg/kg) by oral gavage. Gastrointestinal tract homogenate was made in 3 volumes of water and an equal volume of acetonitrile was added.

The next data set in a line: in vitro. The conditions noted are these: rat, cecal contents, pH 7.4.
In data set [4] the test system is big ET-1 pressor response. Briefly: Pressor testing (ii): inhibition of big ET-1 pressor response over time after oral dosing. The data set is classed as in vivo, Sprague-Dawley rats. The settings on record: 3 μmol/kg, human big ET-1 1 nmol/kg i.v., n=3. The source says: Peak pressor responses were compared to determine the amount of inhibition caused by the title compound at these time intervals.

Each structure is given as a SMILES string. Where two headings read alike, the source gives them in different places.

Experimental for in vitro: Rat cecal contents were quickly placed in cold, degassed potassium phosphate buffer (50 mM, pH 7.4, purged by nitrogen bubbling for at least 30 minutes). Each incubation contained ca. 0.1 g of cecal contents/ml. […] Samples were analyzed with HPLC-UV and LC-MS on a YMC-ODS AQ column (4.6×150 mm, 3μ) eluted with an ammonium acetate/acetonitrile gradient and detected at 270 nm.

As usually defined, the bioavailability is the share of a dose that reaches the circulation, judged against a reference dose that is usually intravenous. In general, share remaining refers to the share of the starting amount still present when the sample was taken. A low value points to a greater loss. Regarding `Cc1onc(NS(=O)(=O)c2ccccc2-c2ccc(-c3ncco3)cc2CN(C)C(=O)CC(C)(C)C)c1C` [N-[[2'-[[(4,5-dimethyl-3-isoxazolyl)amino]sulfonyl]-4-(2-oxazolyl)[1,1'-biphenyl]-2-yl]methyl]-N,3,3-trimethylbutanamide], the “dose-normalized AUC.infin. values, intravenous versus oral” value in data set [1] (fasted male rats, 10 μmol/kg intravenous vs 20 μmol/kg oral) is “not statistically different”. The AUC(0-inf) in data set [1] (10 umol/kg, intravenous, 10 μmol/kg as a 10 minute infusion, propylene glycol vehicle) was 31.3 ± 2.9 µM·h; in data set [1] (20 umol/kg, oral gavage, 20 μmol/kg, PEG-400 vehicle), 72.8 ± 17.3 µM·h. Further, the bioavailability in data set [1] (20 umol/kg, fasted male rats) is ~100%. Further, in data set [2], the ED50 amounted to 0.03 µmol/kg. Moreover, in data set [3], the “metabolites in the gastrointestinal tract” value is “metabolites were not observed”. Also, the share remaining at 9 h in data set [3] turned out to be 100%. Further, the share remaining at 1 h, 200 µM in the data set “in vitro” turned out to be 100%. Also, the “% Inhibition (big ET-1 pressor response)” value was determined as 57 ± 7% in data set [4] (15 minutes after dosing), 65 ± 13% in data set [4] (105 minutes after dosing) and 74 ± 8% in data set [4] (195 minutes after dosing).
Consider `Cc1onc(NS(=O)(=O)c2ccccc2-c2ccc(-c3ncco3)cc2CN2CCC(C)(C)C2=O)c1C` [N-(4,5-dimethyl-3-isoxazolyl)-2'-[(3,3-dimethyl-2-oxo-1-pyrrolidinyl)methyl]-4'-(2-oxazolyl)[1,1'-biphenyl]-2-sulfonamide], for which the bioavailability in data set [1] (20 umol/kg, fasted male rats) is ~78%.

These data come from patent US6043265A, “Isoxazolyl endothelin antagonists” (Bristol-Myers Squibb Co., priority 1998, dated 2000).
